Experimental data from PMC7160673, “A Degenerate Peptide Library Approach to Reveal Sequence Determinants of Methyllysine-Driven Protein Interactions” (Frontiers in Cell and Developmental Biology, 2020).

Experiments:
Format in all cases: binding
[1] = tested on: 53BP1 TTD; assay: Histone peptide microarray, 53BP1 TTD; details: 53BP1 TTD hits, average signal per peptide
Method: (§1) Peptide microarrays were fabricated using an Aushon 2470 microarrayer and used as described ([Cornett et al., 2017]) with the following modifications. Protein and antibody hybridization steps were performed in buffer containing 25 mM HEPES pH 7.5, 100 mM NaCl, 0.5% BSA (w/v), and 0.1% NP-40. Slides were washed 3 × 5 min in PBS supplemented with 0.1% Tween-20 between each hybridization step. Antibodies used were primary anti-GST (Sigma #7781, 1:2,000 dilution) and an AlexaFluor 647-labeled secondary antibody (Life Technologies A-21245, 1:5,000 dilution). […] Full lists of peptides queried by array analysis are in Supplementary Table S2.

[2] = tested on: Millipore #07-449, anti-H3K27me3; assay: Histone peptide microarray, Millipore 07-449; details: Millipore 07-449 (anti-H3K27me3) hits, average signal per peptide;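 also: normalized to the highest peptide average per subarray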
Method: as §1

[3] = tested on: Active Motif #39161, anti-H3K9me3; assay: Histone peptide microarray, Active Motif 39161; details: Active Motif 39161 (anti-H3K9me3) hits;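 also: normalized to the highest peptide average per subarray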
Method: as §1

[4] = tested on: Abcam #ab8895, anti-H3K4me1; assay: Histone peptide microarray, Abcam ab8895; details: Abcam ab8895 (anti-H3K4me1) hits, average signal per peptide;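 also: normalized to the highest peptide average per subarray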
Method: as §1

Substance | Avg Signal [1] | Avg Signal [2] | Avg Signal [3] | Avg Signal [4]
Ac-SGRGK(Ac)GGK(Ac)GLGK(Ac)GGAKRHRKVLR-Peg-Biot [H4K5acK8acK12ac] | 0.2078 | 0.002971 |  | 
Ac-SGRGKGGK(Ac)GLGKGGAKRHRK(Ac)VLR-Peg-Biot [Peptide H4K8acK20ac] |  | 0.001712 | 0.003203 | 
Ac-SGRGKQGGKARAKAKTR-Peg-Biot [H2A(1-17)] | 0.1243 |  |  | 
Ac-APRKQLATKAARR(Me2a)K(Me)SAPSTGG-Peg-Biot [H3.3R26me2aK27me1] |  | 0.002329 |  | 0.000609
ARpTK(Me3)QTARKSTGGKAPRKQL-K(Biot)-NH2 [Peptide H3.1T3pK4me3] | 0.0446 | 9.707e-5 | 0.008533 | 
Ac-SGRGK(Pro)GGK(Pro)GLGK(Pro)GGAKRHRKVLR-Peg-Biot [H4K5proK8proK12pro] |  | 0.02856 | 0.005323 | 
Ac-ARAKAKTRSSRAGLQF-Peg-Biotin [H2A(10-25)] |  | 0.005421 |  | 
ARTK(Ac)QTARKSTGGKAPRKQL-K(Biot)-NH2 [Peptide H3.1K4ac] | 0.1441 |  | 0.0285 | 
AGGRAGRDSGRAKTKAVSR-Peg-Biot [H2A.Z.1K4RK7RK11R] |  | 0.008119 | 0.02573 | 0.03173
ARTKQTARKSpTGGKAPRKQL-Peg-Biot [Peptide H3.1T11p] |  | 0.0009523 | 0.0006879 | 0.1657
AGGK(Ac)AGK(Ac)DSGK(Ac)AKTKAVSR-Peg-Biot [H2A.Z.1K4acK7acK11ac] |  | 0.00926 | 0.0007875 | 0.0004754
ARTK(Ac)QTARK(Ac)pSTGGK(Ac)APRK(Ac)QL-K(Biot)-NH2 [H3.1K4acK9acS10pK14acK18ac] | 0.04385 |  |  | 
ARTKQTARKSTGGK(Me2)APRKQL-Peg-Biot [Peptide H3.1K14me2] |  | 0.003481 | 0.004075 | 0.15
Ac-APRKQLATKAARK(Ac)SAPSTGG-Peg-Biot [Peptide H3.3K27ac] |  |  | 0.002855 | 0.011
Biot-Peg-GKKATQASQEY-OH [H2A.X(132-142)] |  | 0.01738 |  | 0.00268
Ac-IAQDFK(Me)TDLRF-Peg-K(Biot)-NH2 [Peptide H3.1K79me1] | 0.009736 |  | 0.002481 | 
KSAPSTGGVK(Me2)KPHRYKPGT-GG-K(Biot)-NH2 [yH3K36me2] | 0.8217 |  |  | 
ARTK(Ac)QTARK(Ac)STGGKAPRK(Ac)QL-K(Biot)-NH2 [H3.1K4acK9acK18ac] | 0.1542 | 0.0004417 | 0.011 | 
Ac-APRKQLATKAARKpSAPSTGG-Peg-K(Biot)-NH2 [Peptide H3.3S28p] |  | 0.00807 | 0.006366 | 0.002135
Ac-TGGKAPR-NleQLATKAAR-Peg-Biot [Peptide H3.1K18-Nle] |  | 0.005136 | 0.003627 | 

Substance | Avg Signal [1] | Avg Signal [2] | Avg Signal [3] | Avg Signal [4]
PEPAKSAPAPKKGSKK(Ac)AVTKAQKK-Peg-Biot [Peptide H2BK16ac] |  | 0.006632 | 0.01682 | 0.001252
Ac-SGR(Me2a)GK(Ac)GGKGLGKGGAKRHRKVLR-K(Biot)-NH2 [Peptide H4R3me2aK5ac] |  |  | 0.0007875 | 0.006503
Ac-SGRGKGGK(Ac)GLGK(Ac)GGAK(Ac)RHRKVLR-Peg-Biot [H4K8acK12acK16ac] |  | 0.005254 |  | 0.004192
Ac-SGRGK(Ac)GGK(Ac)GLGK(Me)GGAK(Ac)RHRKVLR-Peg-Biot [H4K5acK8acK12me1K16ac] |  |  | 0.0008155 | 0.02773
ARTK(Ac)QTARK(Ac)STGGKAPRKQL-K(Biot)-NH2 [Peptide H3.1K4acK9ac] | 0.05583 |  |  | 
AGGKAGKDSGKAKTKAVSR-Peg-Biot [H2A.Z.1 unmod (1-19)] |  | 0.001328 |  | 
Ac-SGRGK(Ac)GGK(Ac)GLGK(Ac)GGAK(Ac)RHRKVLR-Peg-Biot [H4K5acK8acK12acK16ac] | 0.1158 |  |  | 0.005523
ATKAARK(Ac)SAPATGGVK(Me2)KPHRYRPG-GK(Biotin)-OH [H3.1K27acK36me2] |  | 0.003089 | 0.009849 | 0.002974
Ac-SGRGK(Ac)GGKGLGKGGAK(Ac)RHRKVLR-Peg-Biot [Peptide H4K5acK16ac] |  | 0.0005008 | 0.0002957 | 
Ac-RRYQK(Me3)STELL-Peg-Biot [Peptide H3.1K56me3] |  | 0.0004417 | 0.01852 | 
IAQDFKTDLRF-Peg-K(Biot)-NH2 [H3.1.1(74-84)] | 0.02 |  | 0.003353 | 
ARTKQTARKSTGGK(Me3)APRKQL-Peg-Biot [Peptide H3.1K14me3] |  | 0.01888 |  | 0.148
Ac-APRKQLATKAARK(Ac)SAPATGG-Peg-Biot [Peptide H3.1K27ac] |  | 0.003716 | 0.002581 | 
Ac-pSGRGK(Ac)QGGKARAKAKTR-Peg-Biot [Peptide H2AS1pK5ac] | 0.01536 |  | 0.009305 | 
ATKAACitKSAPATGGVKKPHRYRPGGG-K(Biotin)-OH [H3.1K27acK36me3] |  | 0.01344 | 0.01207 | 0.0002929
IHQNLLPKKSAKATKASQ-Peg-Biot [yH2A(112-129)] |  | 0.0006752 | 0.005669 | 0.01029
(Biot)Peg-MPKDIQLARRIRGERA-OH [H3.1.1(120-135)] | 0.05797 | 0.0002349 | 0.000221 | 
H3.1.1(15-34) |  |  | 0.01508 | 
KSAPpSTGGVK(Me3)KPHRYRPGTV-K(biotin)-NH2 [H3.3S31pK36me3] |  | 0.01017 | 0.01189 | 
PEPAKSAPAPKK(Ac)GSKKAVTKAQKK-Peg-Biot [Peptide H2BK12ac] |  | 0.004181 | 0.0009681 | 

Substance | Avg Signal [1] | Avg Signal [2] | Avg Signal [3] | Avg Signal [4]
Ac-SGRGK(Ac)GGK(Ac)GLGKGGAK(Ac)RHRKVLR-Peg-Biot [H4K5acK8acK16ac] |  |  | 0.009927 | 
Ac-SGRGK(Ac)GGK(Ac)GLGKGGAKRHRKVLR-Peg-Biot [Peptide H4K5acK8ac] |  | 0.02195 |  | 0.0004782
ACitTK(Ac)QTARK(Ac)STGGK(Ac)APRK(Ac)QL-K(Biot)-NH2 [H3.1Cit2K4acK9acK14acK18ac] | 0.04568 |  | 0.003876 | 
KSAPSTGGVKKPHRYKPGT-GG-K(Biot)-NH2 (C-terminal GG-K(biotin) amide) [yH3.1(27-45)] | 0.1127 |  |  | 
IHQNLLPKK-pS-AKATKASQ-Peg-Biot [yH2AS121p] |  | 0.007624 | 0.006042 | 
KSAPSTGGVK(Ac)KPHRYKPGT-GG-K(Biot)-NH2 [yH3K36ac] | 0.06747 |  |  | 
ARTKQpTARK(Ac)STGGK(Ac)APRK(Ac)QL-K(Biot)-NH2 [H3.1T6pK9acK14acK18ac] | 0.04664 | 0.004763 | 0.002409 | 
Ac-RRYQK(Ac)STELL-Peg-Biot [Peptide H3.1K56ac] |  | 0.004595 |  | 
ATKAARK(Ac)SAPATGGVK(Me)KPHRYRPG-GK(Biotin)-OH [H3.1K27acK36me1] |  | 0.006337 | 0.01097 | 0.01424
Ac-AGGK(Ac)AGK(Ac)DSGK(Ac)AKTKAVSR-Peg-Biot [H2A.Z.1K4acK7acK11acN-ac] |  | 0.0008552 | 0.000221 | 4.222e-5
Ac-APRK(Ac)QLATK(Ac)AARK(Ac)SAPSTGG-Peg-Biot [H3.3K18acK23acK27ac] |  | 0.005039 | 0.0217 | 
Ac-IAQDFKTDLRF-Peg-K(Biot)-NH2 [H3.1.1(74-84)N-ac] | 0.06248 |  | 0.005943 | 
ARpTK(Me3)QTARK(Ac)STGGK(Ac)APRK(Ac)QL-K(Biot)-NH2 [H3.1T3pK4me3K9acK14acK18ac] | 0.05883 | 0.007748 | 0.05484 | 
ARTK(Ac)QTARK(Ac)STGGK(Ac)APRKQL-K(Biot)-NH2 [H3.1K4acK9acK14ac] | 0.1165 |  |  | 
KSAPSpTGGVKKPHRYRPGT-G-K(Biot)-NH2 [Peptide H3.3T32p] |  | 0.006003 | 0.001353 | 0.0003862
ARTKQTAR(Me2s)KSTGGKAPRKQL-Peg-Biot [Peptide H3.1R8me2s] |  |  | 0.0002677 | 0.05819
Ac-pSGRGK(Ac)QGGK(Ac)ARAK(Ac)AK(Ac)TR-Peg-Biot [H2AS1pK5acK9acK13acK15ac] | 0.09024 |  |  | 
Ac-AGGKAGKDSGKAKTKAVSR-Peg-Biot [H2A.Z.1(1-19)N-ac] |  | 0.007006 |  | 0.002647
ARTKQTARKSTGG-NleAPRKQL-Peg-Biot [Peptide H3.1K14-Nle] |  | 0.0002842 |  | 0.09623
Ac-SGRGK(Ac)GGKGLGK(Ac)GGAK(Ac)RHRKVLR-Peg-Biot [H4K5acK12acK16ac] |  | 0.0005303 |  | 
